Legend:
[1] = Octanol-water partition coefficient, log D of the compound at pH 7.4; assay type: physicochemical
[2] = Intrinsic clearance in human liver microsomes; assay type: ADME; conditions: read-out: CLH
[3] = Intrinsic clearance in human hepatocytes assessed as 10^6 cells; assay type: ADME, cell-based, Hepatocyte; conditions: read-out: CLH
[4] = Intrinsic clearance in rat liver microsomes; assay type: ADME; conditions: read-out: CLH
[5] = Dissociation constant, pKa of the compound; assay type: physicochemical
[6] = Intrinsic clearance in dog liver microsomes; assay type: ADME, Canis lupus familiaris

Structure (SMILES)	logD [1]	microsomal CLint [2] [µL/min/mg]	hepatocyte CLint [3] [µL/min/1e6 cells]	microsomal CLint [4] [µL/min/mg]	pKa [5]	microsomal CLint [6] [µL/min/mg]
CNc1nc(Cc2ccccc2)nc2c1CCNC[C@H]2C	0.7					
CNc1nc(Cc2ccccc2)nc2c1CCNC[C@@H]2C	0.7	16	3.4	329	8.6	114
Nc1nc(Cc2ccccc2)nc2c1CCNCC2	0.1					

— ChEMBL document CHEMBL3286089, “Multiparameter optimization in CNS drug discovery: design of pyrimido[4,5-d]azepines as potent 5-hydroxytryptamine 2C (5-HT₂C) receptor agonists with exquisite functional selectivity over 5-HT₂A and 5-HT₂B receptors” (J Med Chem, 2014)
